According to PMC10364322, “Evaluation of chronic drug-induced electrophysiological and cytotoxic effects using human-induced pluripotent stem cell-derived cardiomyocytes (hiPSC-CMs)” (Frontiers in Pharmacology, 2023):
Read-outs that look alike come from different tables or passages of the source.

System: hiPSC-CMs (iCell-Cardiomyocytes^2)
How it was run: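 Spontaneous field potentials and impedance recorded by MEA at 37°C, 5% CO2 in hiPSC-CM monolayers (50 K/well, fibronectin-coated), 5-min baseline before compound; final DMSO 0.1%. Values are percent change from baseline, mean ± SD, compared with DMSO by Wilcoxon-Mann Whitney, interpreted against DMSO tolerance intervals.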

C#Cc1cccc(Nc2ncnc3cc(OCCOC)c(OCCOC)cc23)c1 [Erlotinib]
BR (beat rate) % change from baseline (0.3 µM, 2h): 3±3% | Beating below threshold, number of observations/total well numbers (0.3 µM, 2h): 0/5 | Cessation of beating, number of observations/total well numbers (0.3 µM, 2h): 0/5 | EAD, number of observations/total well numbers (0.3 µM, 2h): 0/5 | FPD (field-potential duration), % change from baseline (0.3 µM, 2h): 0.6±0.9% | FPDc (field-potential duration corrected by beat-rate), % change from baseline (0.3 µM, 2h): 1.6±1.1% | Flat T-wave-like, number of observations/total well numbers (0.3 µM, 2h): 0/5 | BR (beat rate) % change from baseline (0.3 µM, 24h): -1±5% | Beating below threshold, number of observations/total well numbers (0.3 µM, 24h): 0/5 | Cessation of beating, number of observations/total well numbers (0.3 µM, 24h): 0/5 | EAD, number of observations/total well numbers (0.3 µM, 24h): 0/5 | FPD (field-potential duration), % change from baseline (0.3 µM, 24h): 7.8±3.3% | FPDc (field-potential duration corrected by beat-rate), % change from baseline (0.3 µM, 24h): 7.4±1.9% | Flat T-wave-like, number of observations/total well numbers (0.3 µM, 24h): 0/5 | BR (beat rate) % change from baseline (0.3 µM, 48h): -12±1% | Beating below threshold, number of observations/total well numbers (0.3 µM, 48h): 0/5 | Cessation of beating, number of observations/total well numbers (0.3 µM, 48h): 0/5 | EAD, number of observations/total well numbers (0.3 µM, 48h): 0/5 | FPD (field-potential duration), % change from baseline (0.3 µM, 48h): 16.2±1.3% | FPDc (field-potential duration corrected by beat-rate), % change from baseline (0.3 µM, 48h): 11.5±0.7% | Flat T-wave-like, number of observations/total well numbers (0.3 µM, 48h): 0/5 | BR (beat rate) % change from baseline (0.3 µM, 72h): -8±2% | Beating below threshold, number of observations/total well numbers (0.3 µM, 72h): 0/5 | Cessation of beating, number of observations/total well numbers (0.3 µM, 72h): 0/5 | EAD, number of observations/total well numbers (0.3 µM, 72h): 0/5 | FPD (field-potential duration), % change from baseline (0.3 µM, 72h): 14.6±3.1% | FPDc (field-potential duration corrected by beat-rate), % change from baseline (0.3 µM, 72h): 11.4±2.8% | Flat T-wave-like, number of observations/total well numbers (0.3 µM, 72h): 0/5 | BR (beat rate) % change from baseline (0.3 µM, 96h): -14±1% | Beating below threshold, number of observations/total well numbers (0.3 µM, 96h): 0/5 | Cessation of beating, number of observations/total well numbers (0.3 µM, 96h): 0/5 | EAD, number of observations/total well numbers (0.3 µM, 96h): 0/5 | FPD (field-potential duration), % change from baseline (0.3 µM, 96h): 21.2±1.9% | FPDc (field-potential duration corrected by beat-rate), % change from baseline (0.3 µM, 96h): 15.1±1.6% | Flat T-wave-like, number of observations/total well numbers (0.3 µM, 96h): 0/5 | BR (beat rate) % change from baseline (1 µM, 2h): 1±1% | Beating below threshold, number of observations/total well numbers (1 µM, 2h): 0/5 | Cessation of beating, number of observations/total well numbers (1 µM, 2h): 0/5 | EAD, number of observations/total well numbers (1 µM, 2h): 0/5 | FPD (field-potential duration), % change from baseline (1 µM, 2h): 3.4±1% | FPDc (field-potential duration corrected by beat-rate), % change from baseline (1 µM, 2h): 3.8±0.8% | Flat T-wave-like, number of observations/total well numbers (1 µM, 2h): 0/5 | BR (beat rate) % change from baseline (1 µM, 24h): 0±5% | Beating below threshold, number of observations/total well numbers (1 µM, 24h): 0/5 | Cessation of beating, number of observations/total well numbers (1 µM, 24h): 0/5 | EAD, number of observations/total well numbers (1 µM, 24h): 0/5 | FPD (field-potential duration), % change from baseline (1 µM, 24h): 5.5±5.8% | FPDc (field-potential duration corrected by beat-rate), % change from baseline (1 µM, 24h): 5.6±4% | Flat T-wave-like, number of observations/total well numbers (1 µM, 24h): 0/5 | BR (beat rate) % change from baseline (1 µM, 48h): -13±3% | Beating below threshold, number of observations/total well numbers (1 µM, 48h): 0/5 | Cessation of beating, number of observations/total well numbers (1 µM, 48h): 0/5 | EAD, number of observations/total well numbers (1 µM, 48h): 0/5 | FPD (field-potential duration), % change from baseline (1 µM, 48h): 16.6±3.6% | FPDc (field-potential duration corrected by beat-rate), % change from baseline (1 µM, 48h): 11.3±2.2% | Flat T-wave-like, number of observations/total well numbers (1 µM, 48h): 0/5 | BR (beat rate) % change from baseline (1 µM, 72h): -9±2% | Beating below threshold, number of observations/total well numbers (1 µM, 72h): 0/5 | Cessation of beating, number of observations/total well numbers (1 µM, 72h): 0/5 | EAD, number of observations/total well numbers (1 µM, 72h): 0/5 | FPD (field-potential duration), % change from baseline (1 µM, 72h): 14.7±3.9% | FPDc (field-potential duration corrected by beat-rate), % change from baseline (1 µM, 72h): 11±3.3% | Flat T-wave-like, number of observations/total well numbers (1 µM, 72h): 0/5 | BR (beat rate) % change from baseline (1 µM, 96h): -16±2% | Beating below threshold, number of observations/total well numbers (1 µM, 96h): 0/5 | Cessation of beating, number of observations/total well numbers (1 µM, 96h): 0/5 | EAD, number of observations/total well numbers (1 µM, 96h): 0/5 | FPD (field-potential duration), % change from baseline (1 µM, 96h): 22.4±3.5% | FPDc (field-potential duration corrected by beat-rate), % change from baseline (1 µM, 96h): 15.1±2.5% | Flat T-wave-like, number of observations/total well numbers (1 µM, 96h): 0/5 | BR (beat rate) % change from baseline (3 µM, 72h): -10±2% | Beating below threshold, number of observations/total well numbers (3 µM, 72h): 0/5 | Cessation of beating, number of observations/total well numbers (3 µM, 72h): 0/5 | EAD, number of observations/total well numbers (3 µM, 72h): 0/5 | FPD (field-potential duration), % change from baseline (3 µM, 72h): 10.9±3.3% | FPDc (field-potential duration corrected by beat-rate), % change from baseline (3 µM, 72h): 7.1±2.8% | Flat T-wave-like, number of observations/total well numbers (3 µM, 72h): 0/5 | BR (beat rate) % change from baseline (3 µM, 96h): -18±2% | Beating below threshold, number of observations/total well numbers (3 µM, 96h): 0/5 | Cessation of beating, number of observations/total well numbers (3 µM, 96h): 0/5 | EAD, number of observations/total well numbers (3 µM, 96h): 0/5 | FPD (field-potential duration), % change from baseline (3 µM, 96h): 18.9±1.9% | FPDc (field-potential duration corrected by beat-rate), % change from baseline (3 µM, 96h): 11.7±1.1% | Flat T-wave-like, number of observations/total well numbers (3 µM, 96h): 0/5 | BR (beat rate) % change from baseline (3 µM, 2h): 1±2% | Beating below threshold, number of observations/total well numbers (3 µM, 2h): 0/5 | Cessation of beating, number of observations/total well numbers (3 µM, 2h): 0/5 | EAD, number of observations/total well numbers (3 µM, 2h): 0/5 | FPD (field-potential duration), % change from baseline (3 µM, 2h): 2±3% | FPDc (field-potential duration corrected by beat-rate), % change from baseline (3 µM, 2h): 2.4±2.4% | Flat T-wave-like, number of observations/total well numbers (3 µM, 2h): 0/5 | BR (beat rate) % change from baseline (3 µM, 24h): 2±3% | Beating below threshold, number of observations/total well numbers (3 µM, 24h): 0/5 | Cessation of beating, number of observations/total well numbers (3 µM, 24h): 0/5 | EAD, number of observations/total well numbers (3 µM, 24h): 0/5 | FPD (field-potential duration), % change from baseline (3 µM, 24h): 0.1±4% | FPDc (field-potential duration corrected by beat-rate), % change from baseline (3 µM, 24h): 0.7±3% | Flat T-wave-like, number of observations/total well numbers (3 µM, 24h): 0/5 | BR (beat rate) % change from baseline (3 µM, 48h): -13±3% | Beating below threshold, number of observations/total well numbers (3 µM, 48h): 0/5 | Cessation of beating, number of observations/total well numbers (3 µM, 48h): 0/5 | EAD, number of observations/total well numbers (3 µM, 48h): 0/5 | FPD (field-potential duration), % change from baseline (3 µM, 48h): 11±2.4% | FPDc (field-potential duration corrected by beat-rate), % change from baseline (3 µM, 48h): 5.9±1.1% | Flat T-wave-like, number of observations/total well numbers (3 µM, 48h): 0/5 | wells with flat T-wave (10 µM (highest concentration)): One well on 5 | BR (beat rate) % change from baseline (10 µM, 2h): 1±1% | Beating below threshold, number of observations/total well numbers (10 µM, 2h): 0/5 | Cessation of beating, number of observations/total well numbers (10 µM, 2h): 0/5 | EAD, number of observations/total well numbers (10 µM, 2h): 0/5 | FPD (field-potential duration), % change from baseline (10 µM, 2h): 3.5±0.9% | FPDc (field-potential duration corrected by beat-rate), % change from baseline (10 µM, 2h): 3.9±1.1% | Flat T-wave-like, number of observations/total well numbers (10 µM, 2h): 0/5 | BR (beat rate) % change from baseline (10 µM, 24h): -1±7% | Beating below threshold, number of observations/total well numbers (10 µM, 24h): 0/5 | Cessation of beating, number of observations/total well numbers (10 µM, 24h): 0/5 | EAD, number of observations/total well numbers (10 µM, 24h): 0/5 | FPD (field-potential duration), % change from baseline (10 µM, 24h): 7.2±5.8% | FPDc (field-potential duration corrected by beat-rate), % change from baseline (10 µM, 24h): 6.3±4.1% | Flat T-wave-like, number of observations/total well numbers (10 µM, 24h): 1/5 | BR (beat rate) % change from baseline (10 µM, 48h): -15±4% | Beating below threshold, number of observations/total well numbers (10 µM, 48h): 0/5 | Cessation of beating, number of observations/total well numbers (10 µM, 48h): 0/5 | EAD, number of observations/total well numbers (10 µM, 48h): 0/5 | FPD (field-potential duration), % change from baseline (10 µM, 48h): 15.4±2.7% | FPDc (field-potential duration corrected by beat-rate), % change from baseline (10 µM, 48h): 8.7±1.6% | Flat T-wave-like, number of observations/total well numbers (10 µM, 48h): 1/5 | BR (beat rate) % change from baseline (10 µM, 72h): -13±4% | Beating below threshold, number of observations/total well numbers (10 µM, 72h): 0/5 | Cessation of beating, number of observations/total well numbers (10 µM, 72h): 0/5 | EAD, number of observations/total well numbers (10 µM, 72h): 0/5 | FPD (field-potential duration), % change from baseline (10 µM, 72h): 16.4±6.7% | FPDc (field-potential duration corrected by beat-rate), % change from baseline (10 µM, 72h): 10.6±6% | Flat T-wave-like, number of observations/total well numbers (10 µM, 72h): 1/5 | BR (beat rate) % change from baseline (10 µM, 96h): -19±2% | Beating below threshold, number of observations/total well numbers (10 µM, 96h): 0/5 | Cessation of beating, number of observations/total well numbers (10 µM, 96h): 0/5 | EAD, number of observations/total well numbers (10 µM, 96h): 0/5 | FPD (field-potential duration), % change from baseline (10 µM, 96h): 25±8.1% | FPDc (field-potential duration corrected by beat-rate), % change from baseline (10 µM, 96h): 16±6.6% | Flat T-wave-like, number of observations/total well numbers (10 µM, 96h): 1/5 | arrhythmic-like events (all concentrations tested): no arrhythmic-like events were observed | changes in BR (all concentrations tested): nor significant changes in BR | prolongation of FPD / FPDc (all concentrations tested): did not observe any physiologically relevant prolongation in FPD and FPDc | effect on hiPSC-CMs electrophysiology or cytotoxicity (up to ∼ three times the estimated fCmax): did not detect any significant effect on hiPSC-CMs electrophysiology or cytotoxicity
